Measurements: article PMC10983001, “Development of Cytotoxic GW7604-Zeise’s Salt Conjugates as Multitarget Compounds with Selectivity for Estrogen Receptor- Positive Tumor Cells” (Journal of Medicinal Chemistry, 2024)
pIC50: −log10 of the molar value. Like-named read-outs stand apart in the source and are kept apart here.

How the values were obtained:
[1] = tested on: MCF-7 cells; test: MTT assay of metabolic activity, MCF-7; format: cell-based, human
Protocol: (§1) The GW7604-Alk-PtCl3 complexes (with exclusion of GW7604-Prop-PtCl3) were investigated for cytotoxic effects in SKBr3 (ER-negative, COX-2-positive, Figure 6), MCF-7 (ERα-positive, COX-negative, Figure 6), and noncancerous TSA-201 (human embryonal kidney) cells at concentrations of 10–30 μM using an established MTT (3-(4,5-dimethylthiazol-2-yl)-2,5-diphenyltetrazolium bromide) assay.[60],[69]
(§2) After incubation for 72 h, the amounts of surviving, metabolically active cells were quantified based on their ability to transform the water-soluble yellow dye MTT to a purple formazan, which can be analyzed by UV–vis spectroscopy.
(§3) The exponentially growing cells were seeded at a density of 1750 (MCF-7), 2000 (SKBr3), and 1250 (TSA-201) cells/well into clear flat-bottom 96-well plates in triplicate. Following 24 h of incubation at 37 °C in a humidified atmosphere (5% CO2/95% air), the compounds [freshly prepared stock solutions in DMF, diluted with DMEM to the desired concentration (final DMF concentration of 0.1% (v/v))] were added to reach the indicated concentrations. After another 72 h of incubation, the cellular metabolic activity was measured employing an MTT assay. By adding predissolved MTT reagent in PBS at a final concentration of 0.5 mg/mL, the metabolic activity can be determined via an enzymatic conversion to a purple formazan salt. After 3 h, the medium was aspirated, and 200 μL of DMSO was added to dissolve the formed formazan crystals. The absorbance was measured at 570 and 690 nm (turbidity assessment) using an EnSpire plate reader (PerkinElmer, Waltham, MA, USA). Solvent-treated cells without a compound served as the positive control. Metabolic activity was calculated by the following equation [drawing 1]

[2] = target: T1, ERα ligand-binding domain (Homo sapiens, UniProt P03372); test: TR-FRET ligand binding assay, isolated LBD of ERα
T1 construct: purchased Invitrogen
T1 sequence (P03372 311-547 limits assumed): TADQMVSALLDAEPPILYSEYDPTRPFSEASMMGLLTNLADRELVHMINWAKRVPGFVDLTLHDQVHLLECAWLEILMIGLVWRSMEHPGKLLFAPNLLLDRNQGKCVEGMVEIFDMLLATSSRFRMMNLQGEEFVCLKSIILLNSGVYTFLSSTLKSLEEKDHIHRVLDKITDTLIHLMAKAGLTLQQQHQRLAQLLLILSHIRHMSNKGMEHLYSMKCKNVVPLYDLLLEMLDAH
Protocol: (§4) A modified LanthaScreen TR-FRET alpha/beta assay was performed, according to the manufacturer’s protocol (Invitrogen, Carlsbad, […]), to determine the binding affinity to the isolated LBD. […] Measurements were carried out on a multimode plate reader, Tecan Spark (Tecan, Männedorf, Switzerland). Calculations and visualization were performed with GraphPad Prism 8.0 (GraphPad Software, San Diego, CA, USA).

[3] = target: T2, ERβ ligand-binding domain (Homo sapiens, UniProt Q92731); test: TR-FRET ligand binding assay, isolated LBD of ERβ
T2 construct: purchased Invitrogen
T2 sequence (Q92731 264-498 limits assumed): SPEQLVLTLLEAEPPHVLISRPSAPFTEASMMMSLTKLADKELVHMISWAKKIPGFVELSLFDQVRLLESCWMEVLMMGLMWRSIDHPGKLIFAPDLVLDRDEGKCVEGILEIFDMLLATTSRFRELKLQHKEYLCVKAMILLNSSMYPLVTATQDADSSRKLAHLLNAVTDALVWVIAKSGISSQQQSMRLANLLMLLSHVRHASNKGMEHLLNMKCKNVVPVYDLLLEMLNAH
Protocol: as §4

[4] = tested on: SKBr3 cells; test: MTT assay of metabolic activity, SKBr3; format: cell-based, human; details: 72 h; for pIC50: MTT
Protocol: as §1, §2, §3

[5] = tested on: MCF-7 cells; test: Cellular uptake (platinum by HR-CS-AAS), MCF-7; format: cell-based, human; details: MCF-7, 20 μM, 8 h
Protocol: (§5) In order to reach the DNA, the complexes must first pass through the cell membrane and penetrate into the nuclei. Therefore, the cellular uptake kinetics of GW7604-Alk-PtCl3 complexes were studied using the example of GW7604-Pent-PtCl3. This complex and Cisplatin, respectively, were incubated at a concentration of 20 μM with MCF-7 or SKBr3 cells. After various time points [i.e., 0 (3 min), 0.5, 1, 2, 4, and 8 h], cell pellets were prepared, and the platinum content was quantified by high-resolution continuum source atomic absorption spectrometry (HR-CS-AAS).[52]
(§6) After thawing of the cell/nuclei pellets, they were resuspended in ultrapure water (Siemens LaboStar, Günzburg, Germany; 300 μL) and lyzed with a sonotrode (Bandelin Sonoplus, Berlin, Germany; parameters 20 s, 9 cycles, 80% power). Graphite furnace (GF) AAS was used to quantify the lysates concerning their content of platinum (λ = 265.9450 nm). For this purpose, a contrAA 700 High-Resolution-Continous Source AAS (Analytik Jena, Jena, Germany) was employed, while atomization took place by electrothermal heating of graphite tubes with an inserted platform (Analytik Jena, Jena, Germany). A time–temperature program reported in the literature[25] was followed with minor adjustments. The liquid samples kept in 0.5 mL polystyrene vials (Gesellschaft für Analysentechnik, Salzwedel, Germany) were injected directly into the pyrolytically coated tubes using an MPE 60 autosampler (Analytik Jena, Jena, Germany). Throughout the measurements, argon (Alphagaz 1, 99.999%, Air Liquide, Düsseldorf, Germany) served as the purge and protective gas. The spectrometer was monitored with the ASpect CS software, version 2.3.1.0 (Analytik Jena, Jena, Germany). For all runs, the mean integrated absorbance was determined after three injections of each standard or sample. Calibration was performed by an appropriate dilution of a solution of Cisplatin (Sigma-Aldrich, Taufkirchen, Germany) obtaining five standards (2–10 μg/L, R^2 ≥ 0.982). Each cell/nuclei lysate was quantified concerning its protein content following the method of Bradford[71] in order to express the uptake as the amount of compound (pmol) in the lysate relative to its protein mass (mg). Therefore, solutions of Albumin fraction V (Carl Roth, Karlsruhe, Germany) diluted with ultrapure water were adduced for the calibration (six standards, 50–300 μg/mL, R^2 ≥ 0.996). A volume of 20 μL of the Albumin standards or the lysates was added to a 96-well plate (Sarstedt, Nürmbrecht, Germany) and supplemented with 200 μL of Bradford’s reagent (Roti-Nanoquant, Carl Roth, Karlsruhe, Germany; diluted 5-fold with ultrapure water). All standards and lysates were measured in duplicate. After incubating for 5 min at rt, the absorbance (λ = 595 nm) was read on a microplate reader (Tecan Safire 2, Männedorf, Switzerland). The cellular/nuclear uptake (pmol complex/mg protein) is given as the mean ± SD of 2 independent experiments.
For cellular uptake studies, 1.0 × 10^6 of MCF-7 and SKBr3 cells in their exponential growing phase were seeded into 25 cm^2 cell culture flasks and incubated for 24 h under a humidified atmosphere (5% CO2/95% air) at 37 °C. Stock solutions of the platinum complexes (GW7604-Pent-PtCl3, Cisplatin) in DMF were freshly prepared and diluted with complete DMEM containing 10% FCS to the desired concentration [final DMF concentration of 0.1% (v/v), final complex concentration of 20 μM]. The medium in the cell culture flasks was replaced with 3 mL of fresh cell culture medium containing the compounds, and the flasks were incubated under a humidified atmosphere at 37 °C for 3 min, 0.5, 1, 2, 4, and 8 h. Cell pellets were prepared by removing the medium, washing two times with phosphate-buffered saline (PBS), and detaching the cells with Accutase (GE Healthcare, BioSciences, Chicago, IL, USA). Subsequently, cells were pelleted by centrifugation (4 °C, 380g, 3 min). […]

[6] = tested on: SKBr3 cells; test: Cellular uptake (platinum by HR-CS-AAS), SKBr3; format: cell-based, human; details: 8 h
Protocol: as §5
as §6, with “A volume of 20 μL of the Albumin standards or the lysates was added to a 96-well plate (Sarstedt, Nürmbrecht, Germany) and supplemented with 200 μL of Bradford’s reagent (Roti-Nanoquant, Carl Roth, Karlsruhe, Germany; diluted 5-fold with ultrapure water).” left out, “The cellular/nuclear uptake (pmol complex/mg protein) is given as the mean ± SD of 2 independent experiments.” left out

[7] = tested on: nuclei of MCF-7 cells; test: Nuclear uptake (platinum by HR-CS-AAS), MCF-7; format: cell-based, human; details: MCF-7, 20 μM, 24 h; pmol complex/mg protein
Protocol: (§7) Fluorescence in the nuclei is not detectable. Therefore, the nuclei were analyzed for their platinum content using HR-CS-AAS.[25]
(§8) After thawing of the cell/nuclei pellets, they were resuspended in ultrapure water (Siemens LaboStar, Günzburg, Germany; 300 μL) and lyzed with a sonotrode (Bandelin Sonoplus, Berlin, Germany; parameters 20 s, 9 cycles, 80% power). Graphite furnace (GF) AAS was used to quantify the lysates concerning their content of platinum (λ = 265.9450 nm). For this purpose, a contrAA 700 High-Resolution-Continous Source AAS (Analytik Jena, Jena, Germany) was employed, while atomization took place by electrothermal heating of graphite tubes with an inserted platform (Analytik Jena, Jena, Germany). […] The spectrometer was monitored with the ASpect CS software, version 2.3.1.0 (Analytik Jena, Jena, Germany). For all runs, the mean integrated absorbance was determined after three injections of each standard or sample. […] Each cell/nuclei lysate was quantified concerning its protein content following the method of Bradford[71] in order to express the uptake as the amount of compound (pmol) in the lysate relative to its protein mass (mg). […] All standards and lysates were measured in duplicate. After incubating for 5 min at rt, the absorbance (λ = 595 nm) was read on a microplate reader (Tecan Safire 2, Männedorf, Switzerland). […]

[8] = tested on: nuclei of SKBr3 cells; test: Nuclear uptake (platinum by HR-CS-AAS), SKBr3; format: cell-based, human; details: SKBr3, 20 μM, 24 h
Protocol: as §7, §8

[9] = tested on: MCF-7 cells; test: Comet assay; format: cell-based, human; details: MCF-7, 15 μM, 48 h
Protocol: The comet assay (Figure 10), however, documents different consequences of DNA binding. […] The picture (Figure 10C) is very similar to that of the solvent control (Figure 10A).
MCF-7 cells were seeded at a density of 1.0 × 10^6 cells into a 25 cm^2 flask, followed by 24 h of incubation in a humidified atmosphere (5% CO2/95% air) at 37 °C. […] Cells were incubated with the compounds for 48 h. The assay was performed according to the manufacturer’s protocol (Comet assay kit, Abcam, Cambridge, UK). Briefly, after lysis and application to the microscopy slides, electrophoresis was run in an alkaline buffer for 20 min at 2 V/cm. Subsequently, slides were washed with pure deionized water and EtOH/water [7/3 (v/v)], and stained with Vista Green DNA Dye. Visualization was carried out by real-time live confocal microscopy using an inverted microscope (Zeiss Observer Z1) in arrangement with a spinning disc confocal system (UltraVIEW VoX).

[10] = tested on: TSA-201 cells; test: MTT assay of metabolic activity, noncancerous TSA-201; format: cell-based, human; details: 72 h; for pIC50: MTT, read-out: IC50 TSA-210
Protocol: as §1, §2, §3

[11] = Water solubility; format: physicochemical
[12] = Homo sapiens, MCF7, 72 h, MTT, read-out: IC50 MCF-7
[13] = 72 h, MTT, read-out: IC50 MCF-7

Compound: CCC(=C(c1ccc(O)cc1)c1ccc(C=CC(=O)O)cc1)c1ccccc1 (mixture of isomers) [GW7604, (E)-3-(4-((E/Z)-1-(4-hydroxyphenyl)-2-phenylbut-1-en-1-yl)phenyl)acrylic acid]
- pIC50 ([1]; Homo sapiens, MCF7, read-out: IC50, reduction of growth of MCF-7 cells): 6.77

Compound: C=CCCOC(=O)/C=C/c1ccc(C(=C(CC)c2ccccc2)c2ccc(O)cc2)cc1 (mixture of isomers) [GW7604-But, But-3-en-1-yl (E)-3-(4-((E/Z)-1-(4-hydroxyphenyl)-2-phenylbut-1-en-1-yl)phenyl) Acrylate]
- pIC50 [1, 12]: < 4.52

Compound: C=CCCCCOC(=O)/C=C/c1ccc(C(=C(CC)c2ccccc2)c2ccc(O)cc2)cc1 (mixture of isomers) [GW7604-Hex, Hex-5-en-1-yl (E)-3-(4-((E/Z)-1-(4-hydroxyphenyl)-2-phenylbut-1-en-1-yl)phenyl) Acrylate]
- pIC50 [1, 12]: < 4.52

Compound: C=CCCCOC(=O)/C=C/c1ccc(C(=C(CC)c2ccccc2)c2ccc(O)cc2)cc1 (mixture of isomers) [GW7604-Pent, Pent-4-en-1-yl (E)-3-(4-((E/Z)-1-(4-hydroxyphenyl)-2-phenylbut-1-en-1-yl)phenyl) Acrylate]
- RBA (ERα) ([2]; RBA(E2) = 100%): 0.90%
- pIC50 ([2]; read-out: IC50 (ERα), displacement from the LBS): 7.41
- RBA (ERβ) ([3]; RBA(E2) = 100%): 0.23%
- pIC50 ([3]; read-out: IC50 (ERβ), displacement from the LBS): 6.98
- pIC50 [1, 12]: < 4.52

Compound: C=CCOC(=O)/C=C/c1ccc(C(=C(CC)c2ccccc2)c2ccc(O)cc2)cc1 (mixture of isomers) [GW7604-Prop, Prop-2-en-1-yl (E)-3-(4-((E/Z)-1-(4-hydroxyphenyl)-2-phenylbut-1-en-1-yl)phenyl) Acrylate]
- pIC50 [1, 12]: 4.52 to 4.70

Compound: N.N.[Cl][Pt][Cl] [Cisplatin, cis-diamminedichloridoplatinum(II), reference compound]
- pIC50 [1, 13]: 4.82
- reduction of metabolic activity ([4]; SKBr3, 20 μM): 88%
- intracellular platinum amount [5]: 319 pmol/mg
- accumulation in SKBr3 relative to MCF-7 cells ([6]; 20 μM): 15 fold
- intracellular platinum amount ([6]; SKBr3, 20 μM): 995 pmol/mg
- platinum content in the nuclei [7]: 172 pmol/mg
- platinum content in the nuclei [8]: 652 pmol/mg
- comet tails (DNA cross-links) [9]: visible as comet tails

Compound: Potassium trichlorido[η^2-(but-3-en-1-yl (E)-3-(4-((E/Z)-1-(4-hydroxyphenyl)-2-phenylbut-1-en-1-yl)phenyl)acrylate)]platinate(II) [GW7604-But-PtCl3]
- pIC50 [1, 13]: 4.69
- pIC50 [4]: < 4.52
- pIC50 [10]: < 4.52
- decrease of cell viability ([10]; TSA-201, 30 μM): about 20%

Compound: Potassium trichlorido[η^2-(hex-5-en-1-yl (E)-3-(4-((E/Z)-1-(4-hydroxyphenyl)-2-phenylbut-1-en-1-yl)phenyl)acrylate)]platinate(II) [GW7604-Hex-PtCl3]
- pIC50 [1, 13]: 4.69
- pIC50 [4]: < 4.52
- pIC50 [10]: < 4.52

Compound: Potassium trichlorido[η^2-(prop-2-en-1-yl (E)-3-(4-((E/Z)-1-(4-hydroxyphenyl)-2-phenylbut-1-en-1-yl)phenyl)acrylate)]platinate(II) [GW7604-Prop-PtCl3]
- water solubility [11]: does not have sufficient water solubility
